Reference: the NIST ThermoML archive (doi:10.1016/j.fluid.2010.10.028)

Test: xn = mol fraction of the nth substance listed
Conditions: Liquid, Vibrating tube method

CC(C)=O [acetone] + CCCCCCC
Conditions	mass density [kg/m3]
377.4 K, 104790 kPa, x1 = 0.492	730.51
377.4 K, 104810 kPa, x1 = 0.801	762.89
377.4 K, 109780 kPa, x1 = 0.492	733.39
377.4 K, 109790 kPa, x1 = 0.801	765.94
377.4 K, 109820 kPa, x1 = 0.7024	753.96
377.4 K, 109850 kPa, x1 = 0.611	743.53
377.4 K, 114760 kPa, x1 = 0.801	768.91
377.4 K, 114820 kPa, x1 = 0.7024	756.89
377.4 K, 114850 kPa, x1 = 0.611	746.4
377.4 K, 119800 kPa, x1 = 0.7024	759.71
377.4 K, 119830 kPa, x1 = 0.492	738.96
377.4 K, 119830 kPa, x1 = 0.801	771.84
377.4 K, 124810 kPa, x1 = 0.7024	762.48
377.4 K, 124850 kPa, x1 = 0.492	741.61
377.4 K, 124850 kPa, x1 = 0.801	774.66
377.4 K, 129810 kPa, x1 = 0.7024	765.17
377.4 K, 129840 kPa, x1 = 0.611	754.52
377.4 K, 129840 kPa, x1 = 0.801	777.42
377.4 K, 129850 kPa, x1 = 0.492	744.18
377.41 K, 1430 kPa, x1 = 0.4	667.78
377.41 K, 1430 kPa, x1 = 0.8992	667.78
377.41 K, 5010 kPa, x1 = 0.4	675.34
377.41 K, 5010 kPa, x1 = 0.8992	675.34
377.41 K, 10000 kPa, x1 = 0.4	684.66
377.41 K, 10000 kPa, x1 = 0.8992	684.66
377.41 K, 14980 kPa, x1 = 0.4	692.99
377.41 K, 14980 kPa, x1 = 0.8992	692.99
377.41 K, 19960 kPa, x1 = 0.4	700.52
377.41 K, 19960 kPa, x1 = 0.8992	700.52
377.41 K, 24950 kPa, x1 = 0.4	707.43
377.41 K, 24950 kPa, x1 = 0.8992	707.43
377.41 K, 29840 kPa, x1 = 0.801	699.24
377.41 K, 29860 kPa, x1 = 0.492	670
377.41 K, 29930 kPa, x1 = 0.4	713.82
377.41 K, 29930 kPa, x1 = 0.8992	713.82
377.41 K, 34850 kPa, x1 = 0.801	705.2
377.41 K, 34930 kPa, x1 = 0.4	719.78
377.41 K, 34930 kPa, x1 = 0.8992	719.78
377.41 K, 39850 kPa, x1 = 0.801	710.77
377.41 K, 39910 kPa, x1 = 0.4	725.35
377.41 K, 39910 kPa, x1 = 0.8992	725.35
377.41 K, 44860 kPa, x1 = 0.801	716
377.41 K, 44890 kPa, x1 = 0.4	730.6
377.41 K, 44890 kPa, x1 = 0.8992	730.6
377.41 K, 49850 kPa, x1 = 0.801	720.93
377.41 K, 49880 kPa, x1 = 0.4	735.58
377.41 K, 49880 kPa, x1 = 0.8992	735.58
377.41 K, 54850 kPa, x1 = 0.492	695.17
377.41 K, 54860 kPa, x1 = 0.4	740.29
377.41 K, 54860 kPa, x1 = 0.8992	740.29
377.41 K, 59860 kPa, x1 = 0.4	744.79
377.41 K, 59860 kPa, x1 = 0.8992	744.79
377.41 K, 64820 kPa, x1 = 0.492	703.44
377.41 K, 64830 kPa, x1 = 0.4	749.06
377.41 K, 64830 kPa, x1 = 0.8992	749.06
377.41 K, 69810 kPa, x1 = 0.4	753.19
377.41 K, 69810 kPa, x1 = 0.8992	753.19
377.41 K, 74900 kPa, x1 = 0.492	711.06
377.41 K, 79760 kPa, x1 = 0.4	760.91
377.41 K, 79760 kPa, x1 = 0.8992	760.91
377.41 K, 84740 kPa, x1 = 0.4	764.58
377.41 K, 84740 kPa, x1 = 0.8992	764.58
377.41 K, 89720 kPa, x1 = 0.4	768.12
377.41 K, 89720 kPa, x1 = 0.8992	768.12
377.41 K, 94700 kPa, x1 = 0.4	771.53
377.41 K, 94700 kPa, x1 = 0.8992	771.53
377.41 K, 99670 kPa, x1 = 0.4	774.85
377.41 K, 99670 kPa, x1 = 0.8992	774.85
377.41 K, 104650 kPa, x1 = 0.4	778.05
377.41 K, 104650 kPa, x1 = 0.8992	778.05
377.41 K, 109630 kPa, x1 = 0.4	781.18
377.41 K, 109630 kPa, x1 = 0.8992	781.18
377.41 K, 114600 kPa, x1 = 0.4	784.19
377.41 K, 114600 kPa, x1 = 0.8992	784.19
377.41 K, 114850 kPa, x1 = 0.492	736.23
377.41 K, 119570 kPa, x1 = 0.4	787.15
377.41 K, 119570 kPa, x1 = 0.8992	787.15
377.41 K, 124540 kPa, x1 = 0.4	790.02
377.41 K, 124540 kPa, x1 = 0.8992	790.02
377.41 K, 129820 kPa, x1 = 0.4	793
377.41 K, 129820 kPa, x1 = 0.8992	793
387.3 K, 19850 kPa, x1 = 0.611	656.37
387.31 K, 1350 kPa, x1 = 0.611	620.65
387.31 K, 4850 kPa, x1 = 0.611	628.99
387.31 K, 9850 kPa, x1 = 0.611	639.33
387.31 K, 14880 kPa, x1 = 0.611	648.36
387.31 K, 39860 kPa, x1 = 0.611	682.12
387.31 K, 49860 kPa, x1 = 0.611	692.49
387.31 K, 54850 kPa, x1 = 0.611	697.23
387.31 K, 64910 kPa, x1 = 0.611	706.07
387.31 K, 84880 kPa, x1 = 0.611	721.4
387.31 K, 109790 kPa, x1 = 0.611	737.58
387.31 K, 114860 kPa, x1 = 0.611	740.58
387.31 K, 119850 kPa, x1 = 0.611	743.43
387.31 K, 124850 kPa, x1 = 0.611	746.21
387.31 K, 129830 kPa, x1 = 0.611	748.89
387.32 K, 1320 kPa, x1 = 0.801	639.55
387.32 K, 1540 kPa, x1 = 0.4	654.4
387.32 K, 1540 kPa, x1 = 0.8992	654.4
387.32 K, 9840 kPa, x1 = 0.801	658.47
387.32 K, 14970 kPa, x1 = 0.4	681.93
387.32 K, 14970 kPa, x1 = 0.8992	681.93
387.32 K, 24870 kPa, x1 = 0.611	663.63
387.32 K, 29860 kPa, x1 = 0.611	670.27
387.32 K, 34870 kPa, x1 = 0.611	676.42
387.32 K, 39850 kPa, x1 = 0.801	702.19
387.32 K, 39920 kPa, x1 = 0.4	716.49
387.32 K, 39920 kPa, x1 = 0.8992	716.49
387.32 K, 44860 kPa, x1 = 0.611	687.46
387.32 K, 49850 kPa, x1 = 0.801	712.89
387.32 K, 49880 kPa, x1 = 0.4	727.19
387.32 K, 49880 kPa, x1 = 0.8992	727.19
387.32 K, 54850 kPa, x1 = 0.801	717.78
387.32 K, 59840 kPa, x1 = 0.611	701.71
387.32 K, 59850 kPa, x1 = 0.4	736.82
387.32 K, 59850 kPa, x1 = 0.801	722.41
387.32 K, 59850 kPa, x1 = 0.8992	736.82
387.32 K, 64820 kPa, x1 = 0.801	726.8
387.32 K, 64830 kPa, x1 = 0.4	741.3
387.32 K, 64830 kPa, x1 = 0.8992	741.3
387.32 K, 69930 kPa, x1 = 0.611	710.16
387.32 K, 74800 kPa, x1 = 0.4	749.67
387.32 K, 74800 kPa, x1 = 0.8992	749.67
387.32 K, 74910 kPa, x1 = 0.611	714.05
387.32 K, 74910 kPa, x1 = 0.801	735.15
387.32 K, 79790 kPa, x1 = 0.4	753.62
387.32 K, 79790 kPa, x1 = 0.8992	753.62
387.32 K, 79900 kPa, x1 = 0.611	717.8
387.32 K, 84760 kPa, x1 = 0.4	757.4
387.32 K, 84760 kPa, x1 = 0.8992	757.4
387.32 K, 89750 kPa, x1 = 0.4	761.05
387.32 K, 89750 kPa, x1 = 0.8992	761.05
387.32 K, 89870 kPa, x1 = 0.611	724.87
387.32 K, 94730 kPa, x1 = 0.4	764.59
387.32 K, 94730 kPa, x1 = 0.8992	764.59
387.32 K, 94840 kPa, x1 = 0.801	749.8
387.32 K, 94850 kPa, x1 = 0.611	728.19
387.32 K, 99700 kPa, x1 = 0.4	768.01
387.32 K, 99700 kPa, x1 = 0.8992	768.01
387.32 K, 99840 kPa, x1 = 0.611	731.42
387.32 K, 104670 kPa, x1 = 0.4	771.32
387.32 K, 104670 kPa, x1 = 0.8992	771.32
387.32 K, 104810 kPa, x1 = 0.611	734.54
387.32 K, 104810 kPa, x1 = 0.801	756.41
387.32 K, 109640 kPa, x1 = 0.4	774.53
387.32 K, 109640 kPa, x1 = 0.8992	774.53
387.32 K, 109780 kPa, x1 = 0.801	759.56
387.32 K, 114600 kPa, x1 = 0.4	777.64
387.32 K, 114600 kPa, x1 = 0.8992	777.64
387.32 K, 119580 kPa, x1 = 0.4	780.68
387.32 K, 119580 kPa, x1 = 0.8992	780.68
387.32 K, 119830 kPa, x1 = 0.801	765.63
387.32 K, 124530 kPa, x1 = 0.4	783.61
387.32 K, 124530 kPa, x1 = 0.8992	783.61
387.32 K, 129840 kPa, x1 = 0.4	786.68
387.32 K, 129840 kPa, x1 = 0.8992	786.68
387.33 K, 1300 kPa, x1 = 0.7024	628.97
387.33 K, 4820 kPa, x1 = 0.7024	637.48
387.33 K, 4860 kPa, x1 = 0.492	621.33
387.33 K, 4860 kPa, x1 = 0.801	648.03
387.33 K, 5010 kPa, x1 = 0.4	662.6
387.33 K, 5010 kPa, x1 = 0.8992	662.6
387.33 K, 9820 kPa, x1 = 0.7024	647.9
387.33 K, 9850 kPa, x1 = 0.492	631.47
387.33 K, 10000 kPa, x1 = 0.4	672.89
387.33 K, 10000 kPa, x1 = 0.8992	672.89
387.33 K, 14850 kPa, x1 = 0.492	640.29
387.33 K, 14860 kPa, x1 = 0.801	667.65
387.33 K, 19810 kPa, x1 = 0.7024	665.07
387.33 K, 19860 kPa, x1 = 0.801	675.81
387.33 K, 19960 kPa, x1 = 0.4	690.05
387.33 K, 19960 kPa, x1 = 0.8992	690.05
387.33 K, 24860 kPa, x1 = 0.801	683.23
387.33 K, 24940 kPa, x1 = 0.4	697.46
387.33 K, 24940 kPa, x1 = 0.8992	697.46
387.33 K, 29820 kPa, x1 = 0.7024	679.2
387.33 K, 29830 kPa, x1 = 0.801	690
387.33 K, 29940 kPa, x1 = 0.4	704.27
387.33 K, 29940 kPa, x1 = 0.8992	704.27
387.33 K, 34860 kPa, x1 = 0.801	696.35
387.33 K, 34930 kPa, x1 = 0.4	710.58
387.33 K, 34930 kPa, x1 = 0.8992	710.58
